Measurements reported in patent US11957661B2, “JAK1 pathway inhibitors for the treatment of vitiligo” (Incyte Corporation, priority 2020, dated 2024).
One block for each molecule: values may come before it.

What was measured:
[1] = system: CD3/CD28-activated human CD8+ T cells; test: Protein analysis (Luminex) of CD8+ T cell conditioned media; assay type: cell-based; details: for LIF, T cells: T cell data
Protocol: (§1) Methods: CD8+ T cell Conditioned Media Step: Normal Human CD8+ T Cells from peripheral blood were purchased ([…] Technologies). They were cultured for 48 hours at 37 C and 5% CO2 under activating and unactivating conditions inside the Incucyte Live-Cell Analysis System (Essen Bioscience). Activated T cells were cultured in a flat bottom 96 well plate (Costar) that was first coated with 10 ug/ml anti-CD3 (BD Biosciences) for 2 hours at room temperature and then washed one time with PBS before cells were added. They were grown in Melanocyte Growth Medium (NHM-GM, MatTek) containing 1 ug/ml anti-CD28 (BD Biosciences). Unactivated T cells were treated the same way except that they were cultured in a separate plate without anti-CD3 and anti-CD28. Each T cell plate was treated at seeding with Compound 1 (1000, 100, or 10 nM) or media alone. Each treatment was done in triplicate. After 48 hours, all the samples (T cells and media) were transferred to new V-bottom plates and centrifuged at 1300 RPMs for 10 minutes. Supernatants were collected from the T cell pellets carefully to not disturb the pellet. The supernatants (CD8+ T cell Conditioned Media) used fresh to treat the melanocyte. The remaining amounts were stored at −80 C and then thawed for protein analysis by Luminex technology (custom Procarta 45-plex, Thermo Fisher Scientific). The treated CD8+ T cell pellets were lysed using the Quantigene sample processing kit reagents following the kit instructions. Lysates were stored at −80 C and then thawed for RNA analysis by Luminex technology using two custom Quantigene 80-Plexes—150 targeted genes total (Thermo Fisher Scientific).
as §1, with “ruxolitinib” for “Compound 1”

Normal Human Melanocytes [2] = test: Protein analysis (Luminex) of melanocyte media after 20% CD8+ T cell conditioned media; assay type: cell-based; details: for IL-8, protein melanocyte media: melanocytes under stress conditions
Protocol: (§2) Melanocyte Proliferation Step: Normal Human Melanocytes isolated from a donor's neonatal foreskin epidermis were purchased (MatTek). They were thawed and seeded following manufacturer's instruction in NHM-GM media in flat bottom 96 well plates (Costar) for 18 hours at 37 C and 5% CO2. They were approximately 10% confluent when treated with 20% CD8+ T cell Conditioned Media (25 ul Conditioned media added to 100 ul of NHM-GM already in the wells). They were cultured for 48 hours at 37 C and 5% CO2 inside the Incucyte Live-Cell Analysis System (Essen Bioscience) with 5 images per well taken every 3 hrs. After 48 hours, all the supernatants were transferred from the melanocyte plates to new V-bottom plates and centrifuged at 1300 RPMs for 10 minutes. Supernatants were collected and were stored at −80 C and then thawed for protein analysis by Luminex technology (custom Procarta 45-plex, Thermo Fisher Scientific). The treated melanocytes were lysed using the Quantigene sample processing kit reagents following the kit instructions. Lysates were stored at −80 C and then thawed for RNA analysis by Luminex technology using two custom Quantigene 80-Plexes for a total of 150 targeted genes (Thermo Fisher Scientific). Incucyte images were analyzed using the Incucyte software and the percentage of melanocyte confluence was determined for each treatment.

Normal Human Melanocytes [3] = test: Melanocyte proliferation assay with 20% CD8+ T cell conditioned media; assay type: cell-based; details: for suppressed melanocyte proliferation response: 1000 nM co-cultured with CD3/CD28-activated human CD8+ T cells, 20% conditioned media; for spontaneous proliferation compared to the natural melanocyte proliferation rate: added to the inflammatory culture media, time-dependent
Protocol: The assay investigates an in vitro system using CD8+ T Cells and melanocytes. The assay tests whether Compound 1 modulates the inflammatory response and how such modulation affects melanocyte biology.
as §1, §2
The assay investigates an in vitro system using CD8+ T Cells and melanocytes. The assay tests whether ruxolitinib modulates the inflammatory response and how such modulation affects melanocyte biology. […]

human JAK2 = human JAK2 (Homo sapiens (Human), UniProt O60674); test: In vitro JAK kinase assay (HTRF, Example A); assay type: biochemical; details: JAK2/JAK1 IC50 ratio, 1 mM ATP
Chain of human JAK2 (O60674 828-1132): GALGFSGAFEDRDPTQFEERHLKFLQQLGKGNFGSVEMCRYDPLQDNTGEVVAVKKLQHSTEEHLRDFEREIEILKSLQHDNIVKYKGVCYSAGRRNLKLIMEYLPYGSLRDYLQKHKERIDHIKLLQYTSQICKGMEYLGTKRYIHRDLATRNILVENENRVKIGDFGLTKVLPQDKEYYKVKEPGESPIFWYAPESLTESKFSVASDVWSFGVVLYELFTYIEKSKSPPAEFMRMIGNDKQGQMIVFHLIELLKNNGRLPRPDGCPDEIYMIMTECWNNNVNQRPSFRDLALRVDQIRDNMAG
Protocol: (§3) The catalytic activity of JAK1, JAK2 or JAK3 was assayed by measuring the phosphorylation of a biotinylated peptide. The phosphorylated peptide was detected by homogenous time resolved fluorescence (HTRF). […] Reactions were carried out at room temperature for 1 hour and then stopped with 20 μL 45 mM EDTA, 300 nM SA-APC, 6 nM Eu-Py20 in assay buffer (Perkin Elmer, Boston, MA). Binding to the Europium labeled antibody took place for 40 minutes and HTRF signal was measured on a Fusion plate reader (Perkin Elmer, Boston, MA).

human JAK1 = human JAK1 (Homo sapiens, UniProt P23458); test: In vitro JAK kinase assay (HTRF, Example A); assay type: biochemical; details: 1 mM ATP
Protocol: as §3

[4] = co-cultured with CD3/CD28-activated human CD8+ T cells
[5] = melanocytes treated with activated T cell conditioned media

SMILES: N#CC[C@H](C1CCCC1)n1cc(-c2ncnc3[nH]ccc23)cn1 [ruxolitinib]
LIF, T cells [1]: on-target inhibition
IL-2, protein T cell media [1, 4]: upregulated
IL-4, protein T cell media [1, 4]: no effect
IL-5, protein T cell media [1, 4]: no effect
IL-6, protein T cell media [1, 4]: no effect
additional mediators not obligated to use JAK1 signaling (growth factors and chemokine), protein T cell media [1, 4]: reduced
inflammatory cytokines that are JAK-STAT dependent, protein T cell media [1, 4]: inhibits
IL-8 concentration, CD8+ T cells ([1]; treatment of CD8+ T cells): slightly reduced
IL-10, protein melanocyte media (Normal Human Melanocytes [2]; [5]): no effect
IL-13, protein melanocyte media (Normal Human Melanocytes [2]; [5]): no effect
inflammatory cytokines that are JAK-STAT dependent, protein melanocyte media (Normal Human Melanocytes [2]; [5]): reduces
IL-8, protein melanocyte media (Normal Human Melanocytes [2]): reduced
suppressed melanocyte proliferation response (Normal Human Melanocytes [3]): completely reverse
spontaneous proliferation compared to the natural melanocyte proliferation rate (Normal Human Melanocytes [3]): significant reduction

SMILES: Cc1n[nH]c(C)c1-c1cnn(C2(CC#N)CN(c3cc(F)c(C(=O)N[C@@H](C)C(F)(F)F)cc3F)C2)c1 [Compound 1, 4-[3-(cyanomethyl)-3-(3′,5′-dimethyl-1H,1′H-4,4′-bipyrazol-1-yl)azetidin-1-yl]-2,5-difluoro-N-[(1S)-2,2,2-trifluoro-1-methylethyl]benzamide]
LIF, T cells [1]: on-target inhibition
additional mediators not obligated to use JAK1 signaling (growth factors and chemokine), protein T cell media [1, 4]: reduced
inflammatory cytokines that are JAK-STAT dependent, protein T cell media [1, 4]: inhibits
increase of IL-8 (Normal Human Melanocytes [2]; melanocyte culture): ~450%
reduction of HGF levels (Normal Human Melanocytes [2]; melanocyte culture supernatants after activated T cell conditioned media): ~67%
inflammatory cytokines that are JAK-STAT dependent, protein melanocyte media (Normal Human Melanocytes [2]; [5]): reduces
IL-8, protein melanocyte media (Normal Human Melanocytes [2]): increased
suppressed melanocyte proliferation response (Normal Human Melanocytes [3]): partially reversed
spontaneous proliferation compared to the natural melanocyte proliferation rate (Normal Human Melanocytes [3]): significant reduction
melanocyte proliferation (% confluence) (Normal Human Melanocytes [3]; following transfer of 20% unactivated T cell media): does not directly alter

SMILES: CC(C)(O)c1cc(O[C@H]2CC[C@@H](N3CC(CC#N)(n4cc(-c5ncnc6[nH]ccc56)cn4)C3)CC2)nc(C(F)(F)F)c1 [Compound 20, {1-(cis-4-{[4-(1-hydroxy-1-methylethyl)-6-(trifluoromethyl)pyridin-2-yl]oxy}cyclohexyl)-3-[4-(7H-pyrrolo[2,3-d]pyrimidin-4-yl)-1H-pyrazol-1-yl]azetidin-3-yl}acetonitrile]
JAK2/JAK1 (human JAK2): >10
IC50 (human JAK1): < 10 nM

SMILES: N#CCC(C1CCN(c2cccc(Cl)n2)C1)n1cc(-c2ncnc3[nH]ccc23)cn1 (single isomer, unassigned) [Compound 6, 3-[1-(6-chloropyridin-2-yl)pyrrolidin-3-yl]-3-[4-(7H-pyrrolo[2,3-d]pyrimidin-4-yl)-1H-pyrazol-1-yl]propanenitrile]
JAK2/JAK1 (human JAK2): >10
IC50 (human JAK1): < 10 nM

SMILES: N#CCC(CN1CCN(C(=O)c2ccc(C#N)cc2F)CC1)n1cc(-c2ncnc3[nH]ccc23)cn1 (stereo not drawn) [Compound 8, 4-[(4-{3-cyano-2-[4-(7H-pyrrolo[2,3-d]pyrimidin-4-yl)-1H-pyrazol-1-yl]propyl}piperazin-1-yl)carbonyl]-3-fluorobenzonitrile]
JAK2/JAK1 (human JAK2): >10
IC50 (human JAK1): < 10 nM

More lines, now with the values ahead:

JAK2/JAK1 (human JAK2): >10
IC50 (human JAK1): < 10 nM
SMILES: C[C@@H](CO)NCc1cc(OC2CCN([C@H]3C[C@](CC#N)(n4cc(-c5ncnc6[nH]ccc56)cn4)C3)CC2)nc(C(F)(F)F)c1 [Compound 23, {trans-3-(4-{[4-({[(1S)-2-hydroxy-1-methylethyl]amino}methyl)-6-(trifluoromethyl)pyridin-2-yl]oxy}piperidin-1-yl)-1-[4-(7H-pyrrolo[2,3-d]pyrimidin-4-yl)-1H-pyrazol-1-yl]cyclobutyl}acetonitrile]

JAK2/JAK1 (human JAK2): >10
IC50 (human JAK1): < 10 nM
SMILES: N#CCC1(n2cc(-c3ncnc4[nH]ccc34)cn2)CN([C@H]2CC[C@@H](Oc3cc(CN4CC[C@@H](O)C4)cc(C(F)(F)F)n3)CC2)C1 [Compound 21, {1-(cis-4-{[4-{[(3R)-3-hydroxypyrrolidin-1-yl]methyl}-6-(trifluoromethyl)pyridin-2-yl]oxy}cyclohexyl)-3-[4-(7H-pyrrolo[2,3-d]pyrimidin-4-yl)-1H-pyrazol-1-yl]azetidin-3-yl}acetonitrile]

JAK2/JAK1 (human JAK2): >10
IC50 (human JAK1): < 10 nM
SMILES: N#CC[C@]1(n2cc(-c3ncnc4[nH]ccc34)cn2)C[C@H](N2CCC(Oc3cc(CCO)cc(C(F)(F)F)n3)CC2)C1 [Compound 26, {trans-3-(4-{[4-(2-hydroxyethyl)-6-(trifluoromethyl)pyridin-2-yl]oxy}piperidin-1-yl)-1-[4-(7H-pyrrolo[2,3-d]pyrimidin-4-yl)-1H-pyrazol-1-yl]cyclobutyl}acetonitrile]
